Reference: US12496460B2, “System and method for quantitative dosimetry of photodynamic therapy in skin” (Trustees of Dartmouth College, priority 2020, dated 2025)

Key:
[1] = tested on: PpIX fluorescence at AK treatment sites; conditions: human, in vivo
Description: Example 2—Human Skin Test Measurement: In this human testing, the system's 100 performance was evaluated on three patients undergoing their standard clinical PDT treatment at the Dartmouth-Hitchcock Dermatology Department for treatment of AKs using Levulan® (Sun Pharma Industries Ltd., Mumbai, India), a 20% ALA solution [see FIG. 2A]. […] The standard procedure involves treatment of a site (e.g. face, scalp, arms, or legs) which is cleaned using ethanol and followed by non-occluded topical application of the ALA; the patient is then transferred to a low-light rest area for a 60-minute incubation period. […] Fluorescence images from a treatment site are gathered before the ALA is applied, at the 60-minute incubation, and post-PDT treatment [see FIG. 2B]. Discomfort levels experienced by the imaged patients were recorded during light irradiation via verbal rating of the pain. The goal of performing dosimeter imaging using the system 100 during treatment is to correlate the measured PpIX accumulation and PDT-induced photobleaching to patient outcomes and generate thresholds that can be used for individualized treatment guidance [see FIG. 2C]. […] Images were pre-processed using Adobe DNG Converter software and analyzed using MATLAB and ImageJ to extract the RAW pixel values. […]

[2] = tested on: PpIX accumulation in athymic nude mice; conditions: mouse, in vivo
Description: Example 1—Preclinical In-vivo Murine Measurements: The nude mouse model was used to examine the system's 100 ability to capture in-vivo production of PpIX. The measurements were performed on five athymic nude mice fed a low-chlorophyll diet to minimize tissue autofluorescence. For imaging, the mice were placed under anesthesia and onto a heated pad to regulate their body temperature; the temperature was monitored using an IR camera (TG165, FLIR Systems Inc.) and kept in the 32° C.-36° C. range. AMELUZ® (Biofontera Inc., Boston, MA), a 10% aminolevulinic acid hydrochloride gel, was topically applied to the backs of the mice as to contain an ALA-applied area and a control area within the field-of-view of the system 100. The mice were kept in a low-light environment to prevent photobleaching of the accumulated PpIX. Images of the mice were taken at 10-minute intervals for the first hour with subsequent images at two and three hours of incubation. The mice were kept under anesthesia during the first hour, placed back in the cage, and briefly placed back under anesthesia for imaging at two and three hours of incubation. The imaging parameters used for these measurements were iOS-generated images with ISO 400 and exposure set to 1/10th sec. The images were processed in ImageJ, where the red pixels were isolated for region-of-interest (ROI) pixel intensity calculation.
In this murine model, it was possible to quantitatively observe the PpIX accumulation in the ALA-applied area as early as 10 minutes with a clear visual accumulation in the 20-30 minute timeframe. In contrast, the control region was relatively flat for the first hour with a moderate increase in fluorescence observed at the two hour and three hour measurements as the mice begin systematic accumulation of the PpIX.

NCC(=O)CCC(=O)O [ALA, aminolevulinic acid]
average pixel value (PpIX fluorescence) at 60 min incubation [1]: 21.1±6.1 | time at which PpIX accumulation is quantitatively observed in the ALA-applied area ([2]; athymic nude): 10 min | timeframe of clear visual PpIX accumulation ([2]; athymic nude): 20 to 30 min | course of PpIX fluorescence over the three hours of incubation [2]: monotonic increase
